{"source": "patent US9050341B2", "about": "“Methods of treating drug resistant and other tumors by administering 6,7-dialkoxy quinazoline derivatives” (NATCO PHARMA LIMITED, priority 2009, dated 2015)", "assay_in_all_cases": "KinomeScan kinase profiling", "format_in_all_cases": "binding", "key": {"[1]": {"target": "T1, MAPKAPK5 (Homo sapiens, UniProt Q8IW41)", "T1 construct": "host or cells: E. coli derived from BL21, infected with T7 phage", "description": "(§1) The kinases were ABL1(F317L), ABL1(H396P), ABL1(Q252H), ABL1(Y253F), ADCK3, ADCK4, ALK, ARK5, AXL, BLK, BRSK2, CDK7, CIT, CLK4, CSNK1D, CSNK1E, DAPK1, DAPK3, DCAMKL3, DMPK, EGFR, EGFR(E746-A750DEL), EGFR(G719C), EGFR(G719S), EGFR(L747-E749DEL, A750P), EGFR(L747-S752 DEL, P753S), EGFR(L747-T751DEL, Sin), EGFR(L858R), EGFR(L861Q), EGFR(S752-I759DEL), EPHA5, EPHA6, ERBB2, ERBB4, ERK3, ERK4, FGR, FLT3(D835H), FLT3(D835Y), FLT3(ITD), FLT3(N841 I), FRK, GAK, GCN2(KIN.DOM.2, S808G), HCK, IRAK3, JAK1(KIN.DOM.1), KIT, KIT(D816V), KIT(V559D), KIT(V559D,T670I), LCK, LOK, LTK, LYN, MAP3K3, MAP4K4, MAP4K5, MET, MINK, MKNK1, MKNK2, MST4, MYLK2, PDGFRB, PIM3, PKN2, PRKD1, PRKD2, PRKD3, PRKG1, RIPK2, RPS6KA4(KIN.DOM.2), SIK2, SLK, SNARK, SRC, STK36, TNIK, TNNI3K, TYK2(KIN.DOM.2).\n(§2) Kinase assays: Assays were performed as described in Fabian et al. (2005) Nature Biotechnology, vol. 23, p. 329. Kinase-tagged T7 phage strains were grown in parallel in 24 or 96-well blocks in an E. coli host derived from the BL21 strain. E. coli were grown to log-phase and infected with T7 phage from a frozen stock (multiplicity of infection ˜0.1) and incubated with shaking at 32° C. until lysis (˜90 minutes). The lysates were centrifuged and filtered to remove cell debris. […] The liganded beads were blocked with excess biotin and washed with blocking buffer (SeaBlock (Pierce), 1% BSA, 0.05% Tween 20, 1 mM DTT) to remove unbound ligand and to reduce non-specific phage binding.\n(§3) Test compounds were prepared as 40× stocks in DMSO and diluted into the aqueous environment. 2.5% DMSO was added to control assays lacking a test compound. All reactions were performed in polystyrene 96-well plates that had been pretreated with blocking buffer in a final volume of 0.04 ml. […] The phage titer in the eluates was measured by quantitative PCR."}, "[2]": {"target": "T2, PAK7 (Homo sapiens, UniProt Q9P286)", "T2 construct": "host or cells: E. coli host derived from the BL21 strain, infected with T7 phage", "description": "as §1, §2, §3"}, "[3]": {"target": "T3, EGFR (S752-1759del) (Homo sapiens, UniProt P00533, DEL752-759)", "T3 construct": "host or cells: E. coli host derived from BL21, T7 phage lysate", "description": "as §1, §2, §3"}, "[4]": {"target": "T4, BTK (Homo sapiens, UniProt Q06187)", "T4 construct": "purchased Ambit Biosciences Corp (KinomeScan); host or cells: E. coli host derived from the BL21 strain, T7 phage", "description": "as §1, §2, §3"}, "[5]": {"target": "T5, ERK5 (Homo sapiens, UniProt Q13164)", "T5 construct": "host or cells: E. coli host derived from BL21, T7 phage lysate", "description": "as §1, §2, §3"}, "[6]": {"target": "T6, PRKCQ (Homo sapiens, UniProt Q04759)", "T6 construct": "purchased Ambit Biosciences Corp (KinomeScan); host or cells: E. coli host derived from BL21, infected with T7 phage", "description": "as §1, §2, §3"}, "[7]": {"target": "T7, MEK4 (Homo sapiens, UniProt P45985)", "T7 construct": "host or cells: E. coli derived from BL21, infected with T7 phage", "description": "as §1, §2, §3"}, "[8]": {"target": "T8, PHKG2 (Homo sapiens, UniProt P15735)", "T8 construct": "host or cells: E. coli host derived from the BL21 strain, infected with T7 phage", "description": "as §1, §2, §3"}, "[9]": {"target": "T9, EGFR (L747-S752del, P753S) (Homo sapiens, UniProt P00533, DEL747-752/P753S)", "T9 construct": "purchased Ambit Biosciences Corp (KinomeScan); host or cells: T7 phage in E. coli host derived from BL21", "description": "as §1, §2, §3"}, "[10]": {"target": "T10, MARK4 (Homo sapiens, UniProt Q96L34)", "T10 construct": "host or cells: E. coli derived from BL21, infected with T7 phage", "T10 sequence (Q96L34 whole entry)": "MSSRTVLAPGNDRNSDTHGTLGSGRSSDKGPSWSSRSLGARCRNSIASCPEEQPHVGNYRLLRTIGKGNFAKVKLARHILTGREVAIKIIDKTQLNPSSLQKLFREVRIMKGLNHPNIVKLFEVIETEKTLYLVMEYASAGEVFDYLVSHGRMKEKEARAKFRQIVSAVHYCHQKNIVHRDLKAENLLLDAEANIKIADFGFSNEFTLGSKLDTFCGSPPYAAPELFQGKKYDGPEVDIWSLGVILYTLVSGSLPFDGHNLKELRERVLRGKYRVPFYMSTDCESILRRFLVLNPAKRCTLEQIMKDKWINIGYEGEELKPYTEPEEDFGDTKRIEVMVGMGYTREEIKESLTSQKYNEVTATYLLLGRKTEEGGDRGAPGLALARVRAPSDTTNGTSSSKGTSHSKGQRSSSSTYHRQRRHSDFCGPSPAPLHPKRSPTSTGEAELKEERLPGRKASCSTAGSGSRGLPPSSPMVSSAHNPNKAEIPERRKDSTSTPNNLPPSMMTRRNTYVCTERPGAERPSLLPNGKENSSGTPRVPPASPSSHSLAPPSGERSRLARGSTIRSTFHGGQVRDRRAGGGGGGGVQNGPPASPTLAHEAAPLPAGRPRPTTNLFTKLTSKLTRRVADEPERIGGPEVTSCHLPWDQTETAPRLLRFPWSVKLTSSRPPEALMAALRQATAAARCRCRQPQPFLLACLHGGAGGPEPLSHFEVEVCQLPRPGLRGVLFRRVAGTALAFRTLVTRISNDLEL", "description": "as §1, §2, §3"}, "[11]": {"target": "T11, p38-delta (Homo sapiens, UniProt O15264)", "T11 construct": "host or cells: E. coli host derived from the BL21 strain, infected with T7 phage", "T11 sequence (O15264 whole entry)": "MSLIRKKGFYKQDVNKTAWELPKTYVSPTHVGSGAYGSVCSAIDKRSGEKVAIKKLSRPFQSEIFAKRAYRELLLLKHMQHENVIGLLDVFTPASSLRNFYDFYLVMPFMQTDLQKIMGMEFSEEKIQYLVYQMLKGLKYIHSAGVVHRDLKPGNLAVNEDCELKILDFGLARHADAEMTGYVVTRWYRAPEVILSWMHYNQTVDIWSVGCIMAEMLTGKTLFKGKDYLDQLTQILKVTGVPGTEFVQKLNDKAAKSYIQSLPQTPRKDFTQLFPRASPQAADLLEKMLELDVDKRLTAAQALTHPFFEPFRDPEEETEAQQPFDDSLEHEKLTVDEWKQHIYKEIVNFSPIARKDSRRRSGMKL", "description": "as §1, §2, §3"}, "[12]": {"target": "T12, TGFBR2 (Homo sapiens, UniProt P37173)", "T12 construct": "host or cells: E. coli host derived from the BL21 strain, T7 phage lysate", "T12 sequence (P37173 23-567)": "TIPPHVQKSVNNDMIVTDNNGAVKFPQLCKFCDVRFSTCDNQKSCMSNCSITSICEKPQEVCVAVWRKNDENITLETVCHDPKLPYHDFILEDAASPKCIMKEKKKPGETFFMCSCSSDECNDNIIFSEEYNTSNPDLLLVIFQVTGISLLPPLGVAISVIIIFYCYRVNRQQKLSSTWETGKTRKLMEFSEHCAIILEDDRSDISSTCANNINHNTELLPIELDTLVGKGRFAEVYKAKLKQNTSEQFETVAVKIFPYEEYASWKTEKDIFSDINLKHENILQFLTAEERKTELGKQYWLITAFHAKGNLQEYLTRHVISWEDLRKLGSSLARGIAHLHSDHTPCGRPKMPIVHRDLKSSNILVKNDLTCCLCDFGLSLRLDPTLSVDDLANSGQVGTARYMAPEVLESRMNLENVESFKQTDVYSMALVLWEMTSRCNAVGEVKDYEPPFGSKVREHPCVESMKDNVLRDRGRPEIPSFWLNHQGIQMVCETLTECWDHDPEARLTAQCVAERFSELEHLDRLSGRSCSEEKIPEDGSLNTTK", "description": "as §1, §2, §3"}, "[13]": {"target": "T13, FGFR4 (Homo sapiens, UniProt P22455)", "T13 construct": "host or cells: E. coli host derived from BL21, infected with T7 phage", "T13 sequence (P22455 22-802)": "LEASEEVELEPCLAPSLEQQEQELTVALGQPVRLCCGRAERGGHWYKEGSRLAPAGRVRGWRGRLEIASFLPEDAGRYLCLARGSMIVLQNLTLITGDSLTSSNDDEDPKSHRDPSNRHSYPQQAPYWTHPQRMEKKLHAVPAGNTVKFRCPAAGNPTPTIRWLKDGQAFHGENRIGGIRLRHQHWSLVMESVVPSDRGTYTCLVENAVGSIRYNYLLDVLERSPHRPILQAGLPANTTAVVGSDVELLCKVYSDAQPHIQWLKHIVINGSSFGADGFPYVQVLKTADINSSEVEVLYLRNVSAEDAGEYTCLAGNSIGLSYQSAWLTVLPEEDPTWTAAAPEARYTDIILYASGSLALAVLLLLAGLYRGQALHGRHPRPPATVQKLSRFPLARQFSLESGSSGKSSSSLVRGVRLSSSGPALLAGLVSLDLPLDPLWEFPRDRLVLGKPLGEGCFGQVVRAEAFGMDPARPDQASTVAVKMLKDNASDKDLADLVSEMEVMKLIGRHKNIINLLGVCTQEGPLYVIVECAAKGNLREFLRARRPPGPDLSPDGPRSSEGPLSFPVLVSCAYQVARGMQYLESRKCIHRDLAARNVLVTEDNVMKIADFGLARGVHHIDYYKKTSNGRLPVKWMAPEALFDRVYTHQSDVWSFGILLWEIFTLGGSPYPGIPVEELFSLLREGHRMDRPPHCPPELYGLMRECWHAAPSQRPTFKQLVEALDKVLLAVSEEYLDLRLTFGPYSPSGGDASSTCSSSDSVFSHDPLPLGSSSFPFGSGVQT", "description": "as §1, §2, §3"}, "[14]": {"target": "T14, PRKR (Homo sapiens, UniProt P19525)", "T14 construct": "purchased Ambit Biosciences Corp (KinomeScan); host or cells: E. coli host derived from BL21, infected with T7 phage", "description": "as §1, §2, §3"}, "[15]": {"target": "T15, CLK4 (Homo sapiens, UniProt Q9HAZ1)", "T15 construct": "host or cells: T7 phage in E. coli (BL21-derived)", "T15 sequence (Q9HAZ1 whole entry)": "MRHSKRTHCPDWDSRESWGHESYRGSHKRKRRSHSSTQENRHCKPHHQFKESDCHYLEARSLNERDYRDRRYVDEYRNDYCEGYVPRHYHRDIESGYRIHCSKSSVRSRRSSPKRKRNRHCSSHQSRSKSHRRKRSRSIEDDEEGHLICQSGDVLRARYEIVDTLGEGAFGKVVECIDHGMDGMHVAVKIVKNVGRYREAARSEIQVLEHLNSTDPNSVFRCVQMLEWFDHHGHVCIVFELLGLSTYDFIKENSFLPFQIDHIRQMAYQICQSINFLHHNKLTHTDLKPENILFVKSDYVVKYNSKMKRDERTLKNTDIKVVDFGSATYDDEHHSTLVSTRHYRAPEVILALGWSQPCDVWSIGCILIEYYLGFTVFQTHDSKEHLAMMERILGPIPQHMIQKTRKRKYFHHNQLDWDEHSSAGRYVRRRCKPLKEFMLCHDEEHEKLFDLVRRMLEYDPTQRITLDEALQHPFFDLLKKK", "description": "as §1, §2, §3"}, "[16]": {"target": "T16, PCTK1 (Homo sapiens, UniProt Q00536)", "T16 construct": "host or cells: E. coli host derived from the BL21 strain, infected with T7 phage", "T16 sequence (Q00536 whole entry)": "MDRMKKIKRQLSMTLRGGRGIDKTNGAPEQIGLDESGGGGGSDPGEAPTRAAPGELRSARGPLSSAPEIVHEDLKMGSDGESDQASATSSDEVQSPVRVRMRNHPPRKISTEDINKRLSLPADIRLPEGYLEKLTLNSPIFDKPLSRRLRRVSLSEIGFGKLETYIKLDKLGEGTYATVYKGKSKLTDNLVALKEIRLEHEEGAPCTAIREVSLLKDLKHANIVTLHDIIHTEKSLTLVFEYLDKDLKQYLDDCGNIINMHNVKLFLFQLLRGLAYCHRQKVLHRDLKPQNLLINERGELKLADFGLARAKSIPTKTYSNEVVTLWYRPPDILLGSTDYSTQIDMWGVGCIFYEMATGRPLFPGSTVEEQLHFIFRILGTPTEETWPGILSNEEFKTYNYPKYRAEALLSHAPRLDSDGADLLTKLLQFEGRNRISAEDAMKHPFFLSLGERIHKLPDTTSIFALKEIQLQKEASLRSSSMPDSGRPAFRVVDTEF", "description": "as §1, §2, §3"}, "[17]": {"target": "T17, MERTK (Homo sapiens, UniProt Q12866)", "T17 construct": "host or cells: E. coli derived from BL21, infected with T7 phage", "description": "as §1, §2, §3"}, "[18]": {"target": "T18, MAP4K3 (Homo sapiens, UniProt Q8IVH8)", "T18 construct": "host or cells: E. coli derived from BL21, infected with T7 phage", "description": "as §1, §2, §3"}, "[19]": {"target": "T19, ANKK1 (Homo sapiens, UniProt Q8NFD2)", "T19 construct": "host or cells: E. coli host derived from BL21 (T7 phage lysate)", "T19 sequence (Q8NFD2 whole entry)": "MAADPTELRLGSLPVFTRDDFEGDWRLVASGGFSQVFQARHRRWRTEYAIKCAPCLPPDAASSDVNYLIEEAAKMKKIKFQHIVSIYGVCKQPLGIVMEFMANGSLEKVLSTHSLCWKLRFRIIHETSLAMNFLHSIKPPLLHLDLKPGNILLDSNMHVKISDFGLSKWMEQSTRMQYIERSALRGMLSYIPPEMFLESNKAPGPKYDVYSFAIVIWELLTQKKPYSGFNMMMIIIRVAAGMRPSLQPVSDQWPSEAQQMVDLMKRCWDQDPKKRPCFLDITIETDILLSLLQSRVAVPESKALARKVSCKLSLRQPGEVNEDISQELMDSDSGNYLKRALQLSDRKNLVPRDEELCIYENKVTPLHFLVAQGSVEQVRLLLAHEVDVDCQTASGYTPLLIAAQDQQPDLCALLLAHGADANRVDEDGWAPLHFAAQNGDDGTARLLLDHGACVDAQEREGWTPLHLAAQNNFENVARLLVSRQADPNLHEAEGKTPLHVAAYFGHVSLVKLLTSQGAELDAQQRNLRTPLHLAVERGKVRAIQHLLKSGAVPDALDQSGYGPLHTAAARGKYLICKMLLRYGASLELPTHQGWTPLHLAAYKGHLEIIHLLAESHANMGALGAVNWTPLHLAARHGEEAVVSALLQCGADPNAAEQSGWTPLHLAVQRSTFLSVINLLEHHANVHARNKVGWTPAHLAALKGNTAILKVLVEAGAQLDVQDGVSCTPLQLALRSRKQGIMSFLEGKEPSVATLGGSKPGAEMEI", "description": "as §1, §2, §3"}, "[20]": {"target": "T20, ERK3 (Homo sapiens, UniProt Q16659)", "T20 construct": "host or cells: E. coli host derived from BL21, T7 phage lysate", "T20 sequence (Q16659 whole entry)": "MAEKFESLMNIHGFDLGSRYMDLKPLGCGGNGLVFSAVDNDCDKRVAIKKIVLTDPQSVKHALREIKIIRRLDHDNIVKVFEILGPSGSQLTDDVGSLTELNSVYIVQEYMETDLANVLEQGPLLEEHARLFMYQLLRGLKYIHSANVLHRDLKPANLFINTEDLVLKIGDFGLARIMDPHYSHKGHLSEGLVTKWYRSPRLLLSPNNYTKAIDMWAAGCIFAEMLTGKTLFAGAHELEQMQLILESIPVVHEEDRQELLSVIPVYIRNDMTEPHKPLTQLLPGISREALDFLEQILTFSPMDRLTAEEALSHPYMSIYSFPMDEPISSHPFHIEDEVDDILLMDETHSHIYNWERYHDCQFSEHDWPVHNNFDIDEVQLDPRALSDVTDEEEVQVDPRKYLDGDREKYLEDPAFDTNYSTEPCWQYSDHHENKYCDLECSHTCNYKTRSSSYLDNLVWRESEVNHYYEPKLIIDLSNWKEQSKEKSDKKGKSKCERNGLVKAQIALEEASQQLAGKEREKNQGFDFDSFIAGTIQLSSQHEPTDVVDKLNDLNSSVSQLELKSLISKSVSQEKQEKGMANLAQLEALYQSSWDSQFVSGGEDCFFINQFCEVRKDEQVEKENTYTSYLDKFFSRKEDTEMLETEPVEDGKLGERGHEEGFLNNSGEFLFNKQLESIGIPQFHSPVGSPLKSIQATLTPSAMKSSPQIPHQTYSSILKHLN", "description": "as §1, §2, §3"}, "[21]": {"target": "T21, BMPR2 (Homo sapiens, UniProt Q13873)", "T21 construct": "purchased Ambit Biosciences Corp (KinomeScan); host or cells: E. coli host derived from the BL21 strain, T7 phage", "description": "as §1, §2, §3"}, "[22]": {"target": "T22, RIOK1 (Homo sapiens, UniProt Q9BRS2)", "T22 construct": "host or cells: E. coli host derived from BL21, T7 phage lysate", "description": "as §1, §2, §3"}, "[23]": {"target": "T23, PIM3 (Homo sapiens, UniProt Q86V86)", "T23 construct": "purchased Ambit Biosciences Corp (KinomeScan); host or cells: E. coli host derived from BL21, infected with T7 phage", "description": "as §1, §2, §3"}}}
{"molecule": "C#Cc1cccc(Nc2ncnc3cc(OC)c(OCCCN4CCOCC4)cc23)c1", "note": "[NRC-2694, N-(3-ethylnylphenyl)-7-methoxy-6-[3-(4-morpholinyl)propoxy]-4-quinazolinamine]", "values": [{"measurement": "% Ctrl @ 10000 nM", "setting": "[1]", "value": 79, "unit": "% Ctrl"}, {"measurement": "% Ctrl @ 10000 nM", "setting": "[2]", "value": 63, "unit": "% Ctrl"}, {"measurement": "% Ctrl @ 10000 nM", "setting": "[3]", "value": 0, "unit": "% Ctrl"}, {"measurement": "% Ctrl @ 10000 nM", "setting": "[4]", "value": 77, "unit": "% Ctrl"}, {"measurement": "% Ctrl @ 10000 nM", "setting": "[5]", "value": 90, "unit": "% Ctrl"}, {"measurement": "% Ctrl @ 10000 nM", "setting": "[6]", "value": 83, "unit": "% Ctrl"}, {"measurement": "% Ctrl @ 10000 nM", "setting": "[7]", "value": 92, "unit": "% Ctrl"}, {"measurement": "% Ctrl @ 10000 nM", "setting": "[8]", "value": 59, "unit": "% Ctrl"}, {"measurement": "% Ctrl @ 10000 nM", "setting": "[9]", "value": 0.1, "unit": "% Ctrl"}, {"measurement": "% Ctrl @ 10000 nM", "setting": "[10]", "value": 100, "unit": "% Ctrl"}, {"measurement": "% Ctrl @ 10000 nM", "setting": "[11]", "value": 100, "unit": "% Ctrl"}, {"measurement": "% Ctrl @ 10000 nM", "setting": "[12]", "value": 86, "unit": "% Ctrl"}, {"measurement": "% Ctrl @ 10000 nM", "setting": "[13]", "value": 69, "unit": "% Ctrl"}, {"measurement": "% Ctrl @ 10000 nM", "setting": "[14]", "value": 51, "unit": "% Ctrl"}, {"measurement": "% Ctrl @ 10000 nM", "setting": "[15]", "value": 17, "unit": "% Ctrl"}, {"measurement": "% Ctrl @ 10000 nM", "setting": "[16]", "value": 100, "unit": "% Ctrl"}, {"measurement": "% Ctrl @ 10000 nM", "setting": "[17]", "value": 48, "unit": "% Ctrl"}, {"measurement": "% Ctrl @ 10000 nM", "setting": "[18]", "value": 52, "unit": "% Ctrl"}, {"measurement": "% Ctrl @ 10000 nM", "setting": "[19]", "value": 73, "unit": "% Ctrl"}, {"measurement": "% Ctrl @ 10000 nM", "setting": "[20]", "value": 10, "unit": "% Ctrl"}, {"measurement": "% Ctrl @ 10000 nM", "setting": "[21]", "value": 100, "unit": "% Ctrl"}, {"measurement": "% Ctrl @ 10000 nM", "setting": "[22]", "value": 36, "unit": "% Ctrl"}, {"measurement": "% Ctrl @ 10000 nM", "setting": "[23]", "value": 23, "unit": "% Ctrl"}]}
